Measurements from a melting point compilation (Tetko et al.; mined from patent text by program, amines drawn as free bases though some values may be those of a salt).

SMILES | melting point
CCN1CCC2(c3cccc(O)c3)Cc3[nH]c(C(=O)N4CCCC4)c(C)c3CC2C1 (stereo unspecified) | 224 to 226 °C
CC(C)CC1(CCCCN2CCN(c3cccc4c3OCCO4)CC2)C(=O)Nc2ccccc21 (stereo unspecified) | 152 to 154 °C
Cn1nc(-c2cccs2)n(C)c1=S | 128 to 129 °C
O=C1C=C(Cc2ccccc2)CC1 | 32 to 33 °C
N#CC1(N)CCOCC1 | 46 to 47 °C
CCOC(=O)C(C)(Cc1cccc(OCCN2CCCCC2)c1)S(=O)(=O)c1ccc(OC)cc1 (stereo unspecified) | 112 °C
O=C(Nc1ccc(Oc2ccnc(NC3CC3)n2)c2ccccc12)c1cc(F)cc(N2CCCCC2)c1 | 157 to 158 °C
CCOC(=O)C1CN(CC)c2nc(OC)ncc2C1=O (stereo unspecified) | 118 °C
COc1ccc(N2C(=O)C(OC(C)=O)C2c2ccccc2Cl)cc1 (stereo unspecified) | 130 to 132 °C
O=C1CCOc2ccc(OCc3ccc4ccccc4n3)cc21 | 112 to 114 °C
Nc1ncnc2c1ncn2CC/C=C/P(=O)(O)O | 263 to 266 °C
COc1ccc(Sc2cnnc3ccccc23)cc1 | 163 °C
CCCNCCCC(c1ccccc1)c1ccccc1 | 94 to 96 °C
Cc1nnc2ccc(-c3cccc(CC(=O)NC(C)C)c3)nn12 | 197 to 200 °C
Cc1oc2c(NC(=O)c3c(Cl)ccc(CO)c3Cl)cccc2c1C | 258 to 261 °C
Cc1cc2c3c(ccc2[nH]1)OCC(CN1CC=C(c2c[nH]c4ccccc24)CC1)O3 (stereo unspecified) | 212 to 215 °C
COc1ccc(-c2nc(N3CCOCC3)c3sc(CN(C)c4ncc(C(=O)NO)cn4)cc3n2)cn1 | 177 to 180 °C
Oc1cc2cc(-c3ccccc3)sc2c(Cl)c1Cl | 122 to 124 °C
CN(c1cccc2cc(C3=NCC4(CCN(CCO)CC4)S3)[nH]c12)S(=O)(=O)c1cccs1 | 214 °C
BrCCCCn1c2ccccc2c2ccccc21 | 102 to 104 °C
CC1CC(=O)NN=C1c1ccc2c(c1)N(C(C)C)C(=O)C(C)O2 (stereo unspecified) | 204 to 205 °C
CC(C)c1cc(Oc2ccc(Cl)cc2)nc(C(C)C)c1NC(=S)NC(C)(C)C | 165 to 167 °C
O=C(C=Cc1cc(O)c(O)c([N+](=O)[O-])c1)c1ccccc1O | 231 to 234 °C
CCOC(=O)CNC(=O)c1cc(F)c(F)cc1N | 147 °C
Nc1c(Oc2ccc(F)c(C(F)(F)F)c2)ncnc1Oc1ccc(F)c(C(F)(F)F)c1 | 104 to 105 °C
CC(=O)N1c2ccccc2CC1c1cc(Cl)ccc1NC(=O)C(C)(C)C (stereo unspecified) | 131 to 134 °C

SMILES | melting point
Cc1ccc(-c2coc3c(C)c(O)ccc3c2=O)cc1 | 264 to 267 °C
CCOC(=O)Cc1c(C)nc(Nc2nc3cc(C)c(C)cc3[nH]2)nc1O | > 300 °C
CC(C)N1CCN(C(=O)c2ccc(-c3ccc(=O)n(C)n3)cc2)CC1 | 131 to 132 °C
CCCN(CCC)C1Cc2c(C(C)=O)ccc3c2C(CN3)C1 (single isomer, unassigned; (+)) | 76 to 77 °C
COc1cccc(C23CN(C)CC2CC32OCC(C)(C)CO2)c1 (stereo unspecified) | 132 to 135 °C
CC(=O)Nc1ccc2oc(=O)[nH]c2c1 | 295 to 300 °C
C[C@@H](n1cnn(-c2ccc(OC(F)(F)C(F)F)cc2)c1=O)[C@@]1(c2ccc(F)cc2F)CO1 | 105 to 106 °C
CNc1cc(N2CCCNCC2)ccc1S(=O)(=O)c1cccc(F)c1 | 153 to 154 °C
COC(=O)c1ccccc1S(=O)(=O)NC(=O)Nc1nc(N)cc(Cl)n1 | 170 to 172 °C
O=C1OC(CCCCN2CCN(c3ncccn3)CC2)CN1c1ccccc1 (stereo unspecified) | 94 to 96 °C
CCCCCCCCN1N=C(C)CC1=O | 59 °C
CC(=O)Nc1ccc(C(=O)CBr)cc1 | 192 °C
CC(C)(C)SCC1Cn2cc(C(=O)NCc3ccc(Cl)cc3)c(=O)c3cc(CN4CCOCC4)cc(c32)O1 (stereo unspecified) | 198 to 201 °C
Cn1cc(C2=C(c3c4n(c5ccccc35)CC(CCO)CC4)C(=O)NC2=O)c2ccccc21 (stereo unspecified) | 236 to 238 °C
Nc1ccc(SCC2CC2)cc1[N+](=O)[O-] | 45 to 47 °C
N#Cc1ccc2c(c1)S(=O)(=O)N=CN2C1CC1 | 268 to 270 °C
CC(C)NC1=NS(=O)(=O)c2sc(Br)cc2N1 | 279 °C
OC(CN1CC=C(c2ccc(Cl)cc2)CC1)c1ccc(Cl)cc1 (stereo unspecified) | 152 to 153 °C
COc1cccc(C(CNC(=O)Cc2c(Cl)cncc2Cl)c2ccccc2)c1 (stereo unspecified) | 142 to 143 °C
C#CCOc1cc(-n2nc(C(C)(C)C)oc2=O)c(F)cc1Cl | 72 to 73 °C
Cc1cc(Nc2ccnc(Nc3ccc(S(=O)(=O)N4CCC(C(O)Cc5ncccc5C)CC4)cc3)n2)ccc1F (stereo unspecified) | 103 to 104 °C
CNC1C(O)C(OC2C(N)CC(N)C(OC3OC(C(C)O)C(O)C(O)C3N)C2O)OCC1(C)O (stereo unspecified) | 65 °C
CCc1c(OC)nc(OC)nc1C(=O)c1cc(C)cc(C=CC#N)c1 | 165 to 166 °C
COc1ccc(C2CN(c3cc(C)c4c(c3C)CC(C)(C)O4)CCO2)cc1 (stereo unspecified) | 107 to 108 °C
COC(=O)C1CCN2C(=O)C(=O)c3cccc1c32 (stereo unspecified) | 135 to 136 °C
CC(C)n1nc(O)nc1N(C)C | 111 to 112 °C

Now from value to compound:

melting point | SMILES
55 to 57 °C | O=C(OCC1(c2ccccc2)CC1)c1cccc2nnsc12
218 to 220 °C | COc1ccc(-c2nc3ccc(C(C)(C)CNC(=O)C(C)C)cc3[nH]2)cc1
214 °C | CC(=O)N1CCC(Nc2nc3ccccc3n2Cc2ccc(CO)o2)CC1
59 °C | CCCCOc1cc2c(cc1C)C(=O)CC2(C)C
79 to 82 °C | CCC(=C(c1ccccc1)c1ccc(OCC2CO2)cc1)C1CCCC1 (stereo unspecified)
189 to 190 °C | COC(=O)c1ccc(C(=O)Nc2ccccc2)cc1
181 to 182 °C | Cc1ccccc1C(=O)Nc1ccc(C(=O)N2CCCCc3sccc32)cc1
81 to 82 °C | OC1CCCC2Oc3ccccc3OC12 (stereo unspecified)
161 to 163 °C | O=C(C=Cc1ccc2ccccc2c1)NCCCCCC(=O)NO
151 to 154 °C | Cc1ccc([C@@H]2c3c(C)c(N4C(=O)CC(c5ccc(F)cc5)CC4=O)c(C)c(C)c3OC2(C)C)cc1
197 to 199 °C | CC(C)NC(=O)c1nn(-c2ccc(Cl)cc2)c(=O)c2c(N)scc12
108 to 111 °C | O=C(NCCC12CC3CC(CC(C3)C1)C2)c1cc(-c2cccnc2C(=O)O)ccc1Cl
222 to 224 °C | Cn1c(N)c(CN2CCN(c3cccc4c3OCCO4)CC2)c(=O)n1-c1ccccc1
166 to 168 °C | Nc1[nH]ncc1-c1cccc(N2CCOCC2)c1
144 to 147 °C | CCOC(=O)Nc1cc(OC(=O)OC)c(Cl)cc1F
20 °C | FC(F)(F)c1cc2ccccc2n1Cc1ccccc1
133 to 142 °C | COC(=O)c1cccc(S(=O)(=O)N(C)C)c1CS(N)(=O)=O
151 to 152 °C | CS(=O)(=O)c1ccc(C2=C(c3cccc(F)c3F)CCC2)cc1
107 to 108 °C | O=S(=O)(Nc1ccc2c(OCC3(c4cccc(C(F)(F)F)c4)N=CNO3)cccc2c1)C(F)(F)F (stereo unspecified)
109 to 111 °C | CC(CCOS(C)(=O)=S)(C(=O)O)C(=O)O (stereo unspecified)
135 to 137 °C | COC(=O)C1=C(CO)NC(C)=C(C(=O)OC(C)C)C1c1ccccc1[N+](=O)[O-] (stereo unspecified)
48 °C | COC(=O)C(CCSC)NC(=O)c1ccc(NCC2CC(O[Si](C)(C)C(C)(C)C)CN2C(=O)OC(C)(C)C)cc1-c1ccccc1 (stereo unspecified)
215 to 220 °C | C[C@@H](NC(=O)c1nc(-c2ccc(Cl)cc2)ns1)[C@](O)(Cn1cncn1)c1ccc(F)cc1F
215 to 216 °C | CCCS(=O)c1ccc2[nH]c(NC(=O)OC)nc2c1 (stereo unspecified)
251 to 252 °C | CCCn1c(=O)c2[nH]c(N3CCOCC3)nc2n(CCC)c1=O

melting point | SMILES
267 °C | N=C(N)NCCNc1c(C(=O)O)cnc2ccccc12
163 to 165 °C | COCCn1nc2c(N)nc3c(c2c1CC(C)(C)O)CCCC3
135 to 138 °C | COc1ccc2c(c1)CCC1CCNC(=O)C(CCl)=C21 (stereo unspecified)
233 to 234 °C | COc1cc(NC(=O)Nc2c(-c3ccccc3Cl)c3cc(C)c(C)cc3n(C)c2=O)cc(OC)c1OC(C)=O
190 to 193 °C | CN1CCN(C(=O)CC2c3ccccc3C(=O)N2c2ccc(Cl)cn2)CC1 (stereo unspecified)
160 °C | CCCCc1nc(Cc2ccc(-c3ccccc3C(=O)O)cc2)c(CC(=O)O)c(Cc2ccc(-c3ccccc3C(=O)O)cc2)n1
42 to 43.5 °C | C=C(CS(=O)CCCC)c1ccccc1 (stereo unspecified)
65 to 80 °C | CCCCN(Cc1ccc(-c2ccccc2-c2nnn[nH]2)cc1)c1ncncc1C(=O)OCC(=O)OC
159 °C | O=C(CCSC(=S)Nc1ccc(Cl)cn1)c1ccccc1
128 to 129 °C | CCCn1nc2c(-c3ccccc3)cccc2c1-c1ccc(OC)cc1
95 to 99 °C | COc1cc(C(=O)c2c(-c3ccc(OCCN4CCCC4)cc3)sc3ccc(O)cc23)ccc1CN1CCCC1
56 to 58 °C | Cc1cc([N+](=O)[O-])ccc1NCC1CCCO1 (stereo unspecified)
199 to 204 °C | CN(C)c1nnc(-c2ccc(S(C)=O)cc2)c(-c2ccc(S(C)=O)cc2)n1 (stereo unspecified)
59 to 61 °C | COC(=O)CSC(C)c1ccc(-c2ccc(OC)cc2)cc1 (stereo unspecified)
127 °C | Cc1ncccc1Cn1c(CO)nc(C(C)C)c1Sc1cc(Cl)cc(Cl)c1
139 °C | CCC1(c2cccc(OCc3ccc4c(ccc(=O)n4C)c3)c2)CCOCC1
148 to 150 °C | O=C(C=NO)Nc1ccc(F)c(F)c1
225 to 228 °C | COc1ccc(S(=O)(=O)N2C(=O)[C@@](c3ccccc3OC)(N3C[C@H](OC(=O)CCC(=O)O)C[C@H]3C(=O)N(C)C)c3cc(Cl)ccc32)c(OC)c1
149 to 151 °C | CCNC(=O)CN(C)C(=O)[C@H](C)NC(=O)CC
53 to 55 °C | O=C/C=C/C=C/c1ccc(OCC(F)(F)C(F)F)cc1
248 to 250 °C | CC1CN(c2nnc(N3CC(C)OC(C)C3)c3cc(-c4ccccc4)ncc23)CC(C)O1 (stereo unspecified)
133 to 138 °C | CC(Cc1sc2ccc(Cl)cc2c1Cl)=NO
98 to 99 °C | Clc1ccc(CSCc2ccc(Cl)c(Cl)c2)cc1Cl
168 to 170 °C | NC(=O)CC(CC(N)=O)c1ccccc1Br
